In patent publication US9428504B2, “7-hydroxy-spiropipiperidine indolinyl antagonists of P2Y1 receptor” (BRISTOL-MYERS SQUIBB COMPANY, priority 2012, dated 2016) one finds Ki and IC50 data, which are given here for 23 compounds.

The structures appear in SMILES notation. Where two headings read alike, the source gives them in different places.

The target in experiment [1] is cloned human P2Y1 receptors (Homo sapiens (Human), UniProt P47900). The experiment can be described thus: Binding Assay B: Scintillation Proximity Assay (SPA) for P2Y1 binding. The method, boiled down:
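Scintillation proximity readout of 0.3 nM [^33P] tracer displacement from receptor membranes (~15 fmol receptor, 1.7 μg protein). Binding ran 1 h at room temperature to completion; plates were then centrifuged and aqueous phase aspirated before counting.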

The test system of experiment [2] is human platelet rich plasma (PRP). The experiment can be described thus: ADP induced platelet aggregation assay. Particulars: Homo sapiens, Platelet, read-out: PA IC50 (μM) @ 10 μM ADP, platelet aggregation induced by 10 μM ADP, human PRP.
Where [3] appears, read: SPA, [33P] 2MeS-ADP displacement, read-out: P2Y1 Ki (nM) using binding assay B.

Sequence of cloned human P2Y1 receptors (P47900 whole entry): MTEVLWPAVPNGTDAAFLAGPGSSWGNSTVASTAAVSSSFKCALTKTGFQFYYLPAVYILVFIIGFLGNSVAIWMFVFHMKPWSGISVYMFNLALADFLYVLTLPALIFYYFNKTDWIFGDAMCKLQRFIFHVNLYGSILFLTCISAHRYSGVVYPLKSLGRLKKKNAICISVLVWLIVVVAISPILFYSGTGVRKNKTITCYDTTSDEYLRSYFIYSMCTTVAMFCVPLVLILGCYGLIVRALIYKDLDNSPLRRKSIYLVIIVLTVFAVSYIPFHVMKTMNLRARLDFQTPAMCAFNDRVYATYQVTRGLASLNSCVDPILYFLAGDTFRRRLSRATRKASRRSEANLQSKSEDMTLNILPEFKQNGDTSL

As for `CC(C)(C)CN1CCC2(CC1)CN(c1ccccc1NC(=O)Nc1nc3ccc(Cl)cc3s1)c1c(O)c(F)cc(Cl)c12` [Example 98, 1-(2-(4-Chloro-6-fluoro-7-hydroxy-1′-neopentylspiro [indoline-3,4′-piperidine]-1-yl)phenyl)-3-(6-chlorobenzo [d]thiazol-2-yl)urea], in experiment [1] (setting [3]), the Ki (as a rule, the dissociation constant of the complex between target and ligand, obtained from inhibition or displacement) turned out to be 12.8 nM. Moreover, the IC50 (in general, the concentration needed to halve the response being measured) in experiment [2] was 0.9 µM.
As for `CC(C)CN1CCCC1c1ccc(NC(=O)Nc2ccccc2N2CC3(CCN(CC(C)(C)C)CC3)c3c(F)cc(F)c(O)c32)cc1` (stereo not shown) [Example 99, 1-(2-(4,6-Difluoro-7-hydroxy-1′-neopentylspiro [indoline-3,4′-piperidine]-1-yl)phenyl)-3-(4-(1-isobutylpyrrolidin-2-yl)phenyl)urea], affinity in experiment [1] was put at a Ki of 14.2 nM. For the same compound, the IC50 in experiment [2] amounted to 1.7 µM.
Take `CC(C)(C)CN1CCC2(CC1)CN(c1ccccc1NC(=O)Nc1nc3ccc(F)cc3s1)c1c(O)c(F)cc(Cl)c12` [Example 100, 1-(2-(4-Chloro-6-fluoro-7-hydroxy-1′-neopentylspiro [indoline-3,4′-piperidine]-1-yl)phenyl)-3-(6-fluorobenzo[d]thiazol-2-yl)urea]: the Ki in experiment [1] (setting [3]) was determined as 7.9 nM. Besides, the IC50 in experiment [2] came out at 0.2 µM.
Turning to `CC(C)(C)CN1CCC2(CC1)CN(c1ccccc1NC(=O)Nc1nc3ccc(Cl)nc3s1)c1c(O)cc(F)c(Cl)c12` [Example 101, 1-(2-(4-Chloro-5-fluoro-7-hydroxy-1′-neopentylspiro [indoline-3,4′-piperidin]-1-yl)phenyl)-3-(5-chlorothiazolo[5,4-b]pyridin-2-yl)urea], the Ki in experiment [1] (setting [3]) worked out at 12.2 nM. For the same compound, the IC50 in experiment [2] was 0.9 µM.
`CC(C)(C)CN1CCC2(CC1)CN(c1ccccc1NC(=O)Nc1nc3ccc(F)nc3s1)c1c(O)cc(F)c(Cl)c12` [Example 102, 1-(2-(4-Chloro-5-fluoro-7-hydroxy-1′-neopentylspiro [indoline-3,4′-piperidin]-1-yl)phenyl)-3-(5-fluorothiazolo [5,4-b]pyridin-2-yl)urea]: in experiment [1] (setting [3]), the Ki amounted to 12.6 nM. The half-maximal inhibitory concentration (IC50) in experiment [2] worked out at 0.6 µM.
Regarding `CC(C)CN1CCCC1c1ccc(NC(=O)Nc2ccccc2N2CC3(CCN(CC(C)(C)C)CC3)c3c(F)c(F)cc(O)c32)cc1` (stereo not shown) [Example 104, 1-(2-(4,5-Difluoro-7-hydroxy-1′-neopentylspiro [indoline-3,4′-piperidine]-1-yl)phenyl)-3-(4-(1-isobutylpyrrolidin-2-yl)phenyl)urea], the Ki in experiment [1] (setting [3]) is 17 nM. Further, the IC50 in experiment [2] is 1 µM.
For `CC(C)CN1CCC(c2ccc(NC(=O)Nc3ccccc3N3CC4(CCN(CC(C)(C)C)CC4)c4c(Cl)c(F)cc(O)c43)cc2)CC1` [Example 105, 1-(2-(4-Chloro-5-fluoro-7-hydroxy-1′-neopentylspiro [indoline-3,4′-piperidine]-1-yl)phenyl)-3-(4-(1-isobutylpiperidin-4-yl)phenyl)urea] the same measures were 12.7 nM and 1.1 µM.
For `CC(C)CN1CCC2(CC1)CN(c1ccccc1NC(=O)Nc1ccc(OC(F)(F)F)cc1)c1c(O)ccc(C(F)(F)F)c12` [Example 106, 1-(2-(7-Hydroxy-1′-isobutyl-4-(trifluoromethyl)spiro [indoline-3,4′-piperidine]-1-yl)phenyl)-3-(4-(trifluoromethoxy)phenyl) urea] the same measures were 10.6 nM and 0.1 µM.
With `CC(C)N1CCC2(CC1)CN(c1ccccc1NC(=O)Nc1ccc(OC(F)(F)F)cc1)c1c(O)ccc(C(F)(F)F)c12` [Example 107, 1-(2-(7-Hydroxy-1′-isopropyl-4-(trifluoromethyl)spiro [indoline-3,4′-piperidine]-1-yl)phenyl)-3-(4-(trifluoromethoxy)phenyl) urea], the Ki in experiment [1] (setting [3]) was found to be 14.4 nM. In addition, in experiment [2], the half-inhibitory concentration (IC50) was determined as 0.6 µM.
For `COc1ccc2nc(NC(=O)Nc3ccccc3N3CC4(CCN(CC(C)(C)C)CC4)c4c(C(F)(F)F)ccc(O)c43)sc2c1` [Example 108, 1-(2-(7-Hydroxy-1′-neopentyl-4-(trifluoromethyl)spiro [indoline-3,4′-piperidin]-1-yl)phenyl)-3-(6-methoxybenzo [d]thiazol-2-yl)urea] the same measures were 14.5 nM and 0.2 µM.
As for `CC(C)(C)CN1CCC2(CC1)CN(c1ccccc1NC(=O)Nc1csc(Cl)n1)c1c(O)ccc(-c3nc4cc(F)ccc4s3)c12` [Example 112, 1-(2-Chlorothiazol-4-yl)-3-(2-(4-(5-fluorobenzo[d]thiazol-2-yl)-7-hydroxy-1′-neopentylspiro[indoline-3,4′-piperidin]-1-yl)phenyl)urea], the inhibitory constant (Ki) in experiment [1] (setting [3]) was 9.5 nM. In addition, the IC50 in experiment [2] came to 0.2 µM.
Taken in the same sequence, the figures for `CC(C)(C)CN1CCC2(CC1)CN(c1ccccc1NC(=O)Nc1csc(Cl)n1)c1c(O)ccc(-c3nc4ccc(Cl)cc4s3)c12` [Example 113, 1-(2-(4-(6-Chlorobenzo[d]thiazol-2-yl)-7-hydroxy-1′-neopentylspiro[indoline-3,4′-piperidin]-1-yl)phenyl)-3-(2-chlorothiazol-4-yl)urea] were 7.1 nM and 0.4 µM.
For `CC(C)(C)CN1CCC2(CC1)CN(c1ccccc1NC(=O)Nc1csc(Cl)n1)c1c(O)ccc(-c3nc4ccc(F)cc4s3)c12` [Example 114, 1-(2-Chlorothiazol-4-yl)-3-(2-(4-(6-fluorobenzo[d]thiazol-2-yl)-7-hydroxy-1′-neopentylspiro[indoline-3,4′-piperidin]-1-yl)phenyl)urea] the same measures were 5.6 nM and 0.1 µM.
Taken in the same sequence, the figures for `CC(C)(C)CN1CCC2(CC1)CN(c1ccccc1NC(=O)Nc1ccc(OC(F)(F)F)cc1)c1c(O)ccc(-c3nc4c(Cl)cccc4s3)c12` [Example 115, 1-(2-(4-(4-Chlorobenzo[d]thiazol-2-yl)-7-hydroxy-1′-neopentylspiro[indoline-3,4′-piperidin]-1-yl)phenyl)-3-(4-(trifluoromethoxy)phenyl)urea] were 22.8 nM and 1 µM.
Turning to `CC(C)(C)CN1CCC2(CC1)CN(c1ccccc1NC(=O)Nc1nc3ccc(F)cc3s1)c1c(O)ccc(-c3nc4c(Cl)cccc4s3)c12` [Example 116, 1-(2-(4-(4-Chlorobenzo[d]thiazol-2-yl)-7-hydroxy-1′-neopentylspiro[indoline-3,4′-piperidin]-1-yl)phenyl)-3-(6-fluorobenzo[b]thiazol-2-yl)urea], in experiment [1] (setting [3]), the Ki worked out at 36.2 nM. The half-maximal inhibitory concentration (IC50) in experiment [2] is 0.6 µM.
Taken in the same sequence, the figures for `CC(C)(C)CN1CCC2(CC1)CN(c1ccccc1NC(=O)Nc1nc3ccc(Cl)nc3s1)c1c(O)ccc(-c3nc4c(Cl)cccc4s3)c12` [Example 117, 1-(2-(4-(4-Chlorobenzo[d]thiazol-2-yl)-7-hydroxy-1′-neopentylspiro[indoline-3,4′-piperidin]-1-yl)phenyl)-3-(5-chlorothiazolo[5,4-b]pyridin-2-yl)urea] were 29.6 nM and 0.6 µM.
Taken in the same sequence, the figures for `CC(C)(C)CN1CCC2(CC1)CN(c1ccccc1NC(=O)Nc1csc(Cl)n1)c1c(O)ccc(-c3nc4c(Cl)cccc4s3)c12` [Example 118, 1-(2-(4-(4-Chlorobenzo[d]thiazol-2-yl)-7-hydroxy-1′-neopentylspiro[indoline-3,4′-piperidin]-1-yl)phenyl)-3-(2-chlorothiazol-4-yl)urea] were 15.5 nM and 0.3 µM.
Turning to `CC(C)(C)CN1CCC2(CC1)CN(c1ccccc1NC(=O)Nc1csc(Cl)n1)c1c(O)ccc(-c3nc4ccc(Br)cc4s3)c12` [Example 119, 1-(2-(4-(6-Bromobenzo[d]thiazol-2-yl)-7-hydroxy-1′-neopentylspiro[indoline-3,4′-piperidin]-1-yl)phenyl)-3-(2-chlorothiazol-4-yl)urea], the Ki in experiment [1] (setting [3]) was found to be 18.4 nM. Besides, the IC50 in experiment [2] is 0.3 µM.
Take `CC(C)(C)CN1CCC2(CC1)CN(c1ccccc1NC(=O)Nc1csc(C(F)(F)F)n1)c1c(O)ccc(-c3nc4cc(Cl)ccc4s3)c12` [Example 120, 1-(2-(4-(5-Chlorobenzo[d]thiazol-2-yl)-7-hydroxy-1′-neopentylspiro[indoline-3,4′-piperidin]-1-yl)phenyl)-3-(2-(trifluoromethyl)thiazol-4-yl)urea]: the Ki in experiment [1] (setting [3]) is 28.5 nM. Further, the IC50 in experiment [2] was 0.6 µM.
For `CC(C)(C)CN1CCC2(CC1)CN(c1ccccc1NC(=O)Nc1ccc(OC(F)(F)F)cc1)c1c(O)ccc(-c3nc4ccc(Br)cc4s3)c12` [Example 121, 1-(2-(4-(6-Bromobenzo[d]thiazol-2-yl)-7-hydroxy-1′-neopentylspiro[indoline-3,4′-piperidin]-1-yl)phenyl)-3-(4-(trifluoromethoxy)phenyl)urea], the Ki in experiment [1] (setting [3]) amounted to 45.6 nM. For the same compound, in experiment [2], the IC50 came out at 0.4 µM.
Regarding `CC(C)(C)CN1CCC2(CC1)CN(c1ccccc1NC(=O)Nc1ccc(OC(F)(F)F)cc1)c1c(O)ccc(-c3nc4cccc(Cl)c4s3)c12` [Example 123, 1-(2-(4-(7-Chlorobenzo[d]thiazol-2-yl)-7-hydroxy-1′-neopentylspiro[indoline-3,4′-piperidin]-1-yl)phenyl)-3-(4-(trifluoromethoxy)phenyl)urea], the Ki in experiment [1] (setting [3]) worked out at 32.5 nM. Moreover, in experiment [2], the IC50 worked out at 0.6 µM.
Taken in the same sequence, the figures for `CC(C)(C)CN1CCC2(CC1)CN(c1ccccc1NC(=O)Nc1nc3ccc(Cl)cc3s1)c1c(O)ccc(-c3nc4cccc(Cl)c4s3)c12` [Example 124, 1-(6-Chlorobenzo[d]thiazol-2-yl)-3-(2-(4-(7-chlorobenzo[d]thiazol-2-yl)-7-hydroxy-1′-neopentylspiro[indoline-3,4′-piperidin]-1-yl)phenyl)urea] were 51.5 nM and 1 µM.
For the compound `CC(C)(C)CN1CCC2(CC1)CN(c1ccccc1NC(=O)Nc1nc3ccc(Cl)nc3s1)c1c(O)ccc(-c3nc4ccc(Cl)cc4s3)c12` [Example 125, 1-(2-(4-(6-Chlorobenzo[d]thiazol-2-yl)-7-hydroxy-1′-neopentylspiro[indoline-3,4′-piperidin]-1-yl)phenyl)-3-(5-chlorothiazolo[5,4-b]pyridin-2-yl)urea], the Ki in experiment [1] (setting [3]) turned out to be 21.6 nM. For the same compound, the IC50 in experiment [2] was 0.9 µM.
